Measured values taken from the supplement of paper PMC10307832.

How the values were obtained:
Assay in all cases: relative viability (nuclei count vs DMSO), 5 days (fraction); higher = more cells survive
[1] = compound: O=S(=O)(c1ccccc1)N(CC(F)(F)F)c1ccc(C(O)(C(F)(F)F)C(F)(F)F)cc1 + COc1cc2c(Oc3ccc(NC(=O)C4(C(=O)Nc5ccc(F)cc5)CC4)cc3F)ccnc2cc1OCCCN1CCOCC1 [Foretinib] (partner 0.25 µM)
Summary of the method: (§1)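 The day after seeding in 1536-well plates, lung cancer cell lines were treated by pin tool with a single drug, or with a fixed anchor-drug dose together with five library-drug doses (not always all listed) in √10 steps. After 5 days, a combined fix-and-stain solution (final 0.05% Triton X-100, 1% formaldehyde, 1 ug/ml Hoechst) was added. Nuclei counted on 4× images gave relative viability as treated counts over vehicle counts, reported as the median of duplicate plates.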

[2] = compound: O=S(=O)(c1ccccc1)N(CC(F)(F)F)c1ccc(C(O)(C(F)(F)F)C(F)(F)F)cc1 + O=C(c1cc(Cc2n[nH]c(=O)c3ccccc23)ccc1F)N1CCN(C(=O)C2CC2)CC1 [Olaparib] (partner 8 µM)
Summary of the method: as §1

[3] = compound: O=S(=O)(c1ccccc1)N(CC(F)(F)F)c1ccc(C(O)(C(F)(F)F)C(F)(F)F)cc1 + CC(=O)c1c(C)c2cnc(Nc3ccc(N4CCNCC4)cn3)nc2n(C2CCCC2)c1=O [Palbociclib] (partner 0.5 µM)
Summary of the method: as §1

[4] = compound: O=S(=O)(c1ccccc1)N(CC(F)(F)F)c1ccc(C(O)(C(F)(F)F)C(F)(F)F)cc1 + CS(=O)(=O)N1CCN(Cc2cc3nc(-c4cccc5[nH]ncc45)nc(N4CCOCC4)c3s2)CC1 [Pictilisib] (partner 1 µM)
Summary of the method: as §1

[5] = compound: O=S(=O)(c1ccccc1)N(CC(F)(F)F)c1ccc(C(O)(C(F)(F)F)C(F)(F)F)cc1 + CS(=O)(=O)CCNCc1ccc(-c2ccc3ncnc(Nc4ccc(OCc5cccc(F)c5)c(Cl)c4)c3c2)o1 [Lapatinib] (partner 2 µM)
Summary of the method: as §1

[6] = compound: O=S(=O)(c1ccccc1)N(CC(F)(F)F)c1ccc(C(O)(C(F)(F)F)C(F)(F)F)cc1 + CC(C)C[C@H](NC(=O)[C@H](Cc1ccccc1)NC(=O)c1cnccn1)B(O)O [Bortezomib] (partner 0.002 µM)
Summary of the method: as §1

Which relative viability ([1]; first compound 0.8 µM) does the source give for UMC-11 here?
The relative viability was 1.16.

What about the relative viability ([1]; first compound 2.53 µM) of the same cell line?
Its relative viability is 1.12.

And the relative viability ([1]; first compound 8 µM)?
The relative viability was 1.08.

And the relative viability ([2]; first compound 0.8 µM)?
The relative viability was 0.355.

And the relative viability ([2]; first compound 2.53 µM)?
The relative viability was 0.459.

What about the relative viability ([2]; first compound 8 µM) of the same cell line?
The relative viability was 0.379.

What about the relative viability ([3]; first compound 0.8 µM) of the same cell line?
Its relative viability is 0.339.

What about the relative viability ([3]; first compound 2.53 µM) of the same cell line?
The relative viability was 0.346.

What about the relative viability ([3]; first compound 8 µM) of the same cell line?
The relative viability was 0.311.

And the relative viability ([4]; first compound 0.8 µM)?
The relative viability was 0.908.

What about the relative viability ([4]; first compound 2.53 µM) of the same cell line?
The relative viability was 0.867.

What about the relative viability ([4]; first compound 8 µM) of the same cell line?
Its relative viability is 1.14.

And the relative viability ([5]; first compound 0.8 µM)?
The relative viability was 1.19.

What about the relative viability ([5]; first compound 2.53 µM) of the same cell line?
Its relative viability is 0.966.

What about the relative viability ([5]; first compound 8 µM) of the same cell line?
Its relative viability is 1.22.

What about the relative viability ([6]; first compound 0.8 µM) of the same cell line?
The relative viability was 0.929.

And the relative viability ([6]; first compound 2.53 µM)?
Its relative viability is 0.743.

What about the relative viability ([6]; first compound 8 µM) of the same cell line?
The relative viability was 0.972.
